In patent publication US12227495B2, “Herbicidal compounds” (SYNGENTA CROP PROTECTION AG, priority 2018, dated 2025):

Experiments:
Format in all cases: in vivo
Conditions in all cases: evaluated after 13 days
[1] = tested on: Amaranthus retoflexus (AMARE); test: Post-emergence herbicide test, glasshouse, percentage damage
Experimental: (§1) Seeds of a variety of test species are sown in standard soil in pots (Lolium perenne (LOLPE), Solanum nigrum (SOLNI), Amaranthus retoflexus (AMARE), Setaria faberi (SETFA), Echinochloa crus-galli (ECHCG), Ipomoea hederacea (IPOHE)). After cultivation for one day (pre-emergence) or after 8 days cultivation (post-emergence) under controlled conditions in a glasshouse (at 24/16° C., day/night; 14 hours light; 65% humidity), the plants are sprayed with an aqueous spray solution derived from the formulation of the technical active ingredient in acetone/water (50:50) solution containing 0.5% Tween 20 (polyoxyethelyene sorbitan monolaurate, CAS RN 9005-64-5). Compounds are applied at 500 g/ha unless otherwise stated. The test plants are then grown in a glasshouse under controlled conditions in a glasshouse (at 24/16° C., day/night; 14 hours light; 65% humidity) and watered twice daily. After 13 days for pre and post-emergence, the test is evaluated for the percentage damage caused to the plant. The biological activities are shown in the following table on a five point scale (5=81-100%; 4=61-80%; 3=41-60%; 2=21-40%; 1=0-20%).

[2] = tested on: Echinochloa crus-galli (ECHCG); test: as above
Experimental: as §1

[3] = tested on: Ipomoea hederacea (IPOHE); test: as above
Experimental: as §1

Lolium perenne (LOLPE) [4] = test: as above
Experimental: as §1

Setaria faberi (SETFA) [5] = test: as above
Experimental: as §1

Solanum nigrum (SOLNI) [6] = test: as above
Experimental: as §1

[7] = tested on: Amaranthus retoflexus (AMARE); test: Pre-emergence herbicide test, glasshouse, percentage damage
Experimental: as §1

[8] = tested on: Echinochloa crus-galli (ECHCG); test: as above
Experimental: as §1

[9] = tested on: Ipomoea hederacea (IPOHE); test: as above
Experimental: as §1

Lolium perenne (LOLPE) [10] = test: as above
Experimental: as §1

Setaria faberi (SETFA) [11] = test: as above
Experimental: as §1

Solanum nigrum (SOLNI) [12] = test: as above
Experimental: as §1

SMILES	percentage damage caused to the plant, AMARE ([1]; 500 g/ha)	percentage damage caused to the plant, ECHCG ([2]; 500 g/ha)	percentage damage caused to the plant, IPOHE ([3]; 500 g/ha)	percentage damage caused to the plant, LOLPE (Lolium perenne (LOLPE) [4]; 500 g/ha)	percentage damage caused to the plant, SETFA (Setaria faberi (SETFA) [5]; 500 g/ha)	percentage damage caused to the plant, SOLNI (Solanum nigrum (SOLNI) [6]; 500 g/ha)	Pre-emergence Test AMARE percentage damage (five point scale) ([7]; rate 500 g/ha)	Pre-emergence Test ECHCG percentage damage (five point scale) ([8]; rate 500 g/ha)	Pre-emergence Test IPOHE percentage damage (five point scale) ([9]; rate 500 g/ha)	Pre-emergence Test LOLPE percentage damage (five point scale) (Lolium perenne (LOLPE) [10]; rate 500 g/ha)	Pre-emergence Test SETFA percentage damage (five point scale) (Setaria faberi (SETFA) [11]; rate 500 g/ha)	Pre-emergence Test SOLNI percentage damage (five point scale) (Solanum nigrum (SOLNI) [12]; rate 500 g/ha)	percentage damage caused to the plant, AMARE ([1]; 1000 g/ha)	percentage damage caused to the plant, ECHCG ([2]; 1000 g/ha)	percentage damage caused to the plant, IPOHE ([3]; 1000 g/ha)	percentage damage caused to the plant, LOLPE (Lolium perenne (LOLPE) [4]; 1000 g/ha)	percentage damage caused to the plant, SETFA (Setaria faberi (SETFA) [5]; 1000 g/ha)	percentage damage caused to the plant, SOLNI (Solanum nigrum (SOLNI) [6]; 1000 g/ha)	Pre-emergence Test AMARE percentage damage (five point scale) ([7]; rate 1000 g/ha)	Pre-emergence Test ECHCG percentage damage (five point scale) ([8]; rate 1000 g/ha)	further results
Fc1cccc(Oc2ccc(C(F)(F)F)cn2)c1-c1cc(C(F)F)no1 [Compound A6]	4 (4=61-80%)	5 (5=81-100%)	3 (3=41-60%)	4 (4=61-80%)	5 (5=81-100%)	5 (5=81-100%)	5 (5=81-100%)	4 (4=61-80%)	2 (2=21-40%)	4 (4=61-80%)	5 (5=81-100%)	5 (5=81-100%)									
Fc1cccc(Oc2cccc(F)c2-c2cc(C(F)F)no2)n1 [Compound A7]	2 (2=21-40%)	4 (4=61-80%)	2 (2=21-40%)	2 (2=21-40%)	5 (5=81-100%)	5 (5=81-100%)	5 (5=81-100%)	4 (4=61-80%)	1 (1=0-20%)	1 (1=0-20%)	4 (4=61-80%)	5 (5=81-100%)									
Fc1cccc(Oc2cc(C(F)(F)F)ccn2)c1-c1cc(C(F)F)no1 [Compound A8]	2 (2=21-40%)	2 (2=21-40%)	1 (1=0-20%)	1 (1=0-20%)	4 (4=61-80%)	5 (5=81-100%)	5 (5=81-100%)	2 (2=21-40%)	1 (1=0-20%)	1 (1=0-20%)	3 (3=41-60%)	4 (4=61-80%)									
Fc1cccc(Oc2ccc(Cl)cn2)c1-c1cc(C(F)F)no1 [Compound A9]	5 (5=81-100%)	5 (5=81-100%)	4 (4=61-80%)	5 (5=81-100%)	5 (5=81-100%)	5 (5=81-100%)	5 (5=81-100%)	5 (5=81-100%)	3 (3=41-60%)	4 (4=61-80%)	5 (5=81-100%)	5 (5=81-100%)									
Fc1cnc(Oc2cccc(F)c2-c2cc(C(F)F)no2)c(F)c1 [Compound A10]	5 (5=81-100%)	5 (5=81-100%)	5 (5=81-100%)	5 (5=81-100%)	5 (5=81-100%)	5 (5=81-100%)	5 (5=81-100%)	5 (5=81-100%)	5 (5=81-100%)	5 (5=81-100%)	5 (5=81-100%)	5 (5=81-100%)									
N#Cc1ccc(Oc2cccc(F)c2-c2cc(C(F)F)no2)nc1 [Compound A12]	5 (5=81-100%)	5 (5=81-100%)	5 (5=81-100%)	5 (5=81-100%)	5 (5=81-100%)	5 (5=81-100%)	5 (5=81-100%)	5 (5=81-100%)	5 (5=81-100%)	5 (5=81-100%)	5 (5=81-100%)	5 (5=81-100%)									
O=[N+]([O-])c1ccc(Oc2ccccc2-n2cc(C(F)(F)F)cn2)nc1 [Compound A14, 5-nitro-2-[2-[4-(trifluoromethyl)pyrazol-1-yl]phenoxy]pyridine]													5 (5=81-100%)	5 (5=81-100%)	4 (4=61-80%)	5 (5=81-100%)	5 (5=81-100%)	5 (5=81-100%)	5 (5=81-100%)	5 (5=81-100%)	Pre-emergence Test IPOHE percentage damage (five point scale) ([9]; rate 1000 g/ha): 3 (3=41-60%); Pre-emergence Test LOLPE percentage damage (five point scale) (Lolium perenne (LOLPE) [10]; rate 1000 g/ha): 5 (5=81-100%); Pre-emergence Test SETFA percentage damage (five point scale) (Setaria faberi (SETFA) [11]; rate 1000 g/ha): 5 (5=81-100%); Pre-emergence Test SOLNI percentage damage (five point scale) (Solanum nigrum (SOLNI) [12]; rate 1000 g/ha): 5 (5=81-100%)
FC(F)(F)c1ccc(Oc2ccccc2-n2cc(C(F)(F)F)cn2)nc1 [Compound A15]													1 (1=0-20%)	2 (2=21-40%)	2 (2=21-40%)	1 (1=0-20%)	3 (3=41-60%)	4 (4=61-80%)	5 (5=81-100%)	5 (5=81-100%)	Pre-emergence Test IPOHE percentage damage (five point scale) ([9]; rate 1000 g/ha): 1 (1=0-20%); Pre-emergence Test LOLPE percentage damage (five point scale) (Lolium perenne (LOLPE) [10]; rate 1000 g/ha): 3 (3=41-60%); Pre-emergence Test SETFA percentage damage (five point scale) (Setaria faberi (SETFA) [11]; rate 1000 g/ha): 5 (5=81-100%); Pre-emergence Test SOLNI percentage damage (five point scale) (Solanum nigrum (SOLNI) [12]; rate 1000 g/ha): 4 (4=61-80%)
Fc1cc(Cl)cnc1Oc1ccccc1-n1cc(C(F)(F)F)cn1 [Compound A16]													4 (4=61-80%)	5 (5=81-100%)	5 (5=81-100%)	5 (5=81-100%)	5 (5=81-100%)	5 (5=81-100%)	5 (5=81-100%)	5 (5=81-100%)	Pre-emergence Test IPOHE percentage damage (five point scale) ([9]; rate 1000 g/ha): 5 (5=81-100%); Pre-emergence Test LOLPE percentage damage (five point scale) (Lolium perenne (LOLPE) [10]; rate 1000 g/ha): 5 (5=81-100%); Pre-emergence Test SETFA percentage damage (five point scale) (Setaria faberi (SETFA) [11]; rate 1000 g/ha): 5 (5=81-100%); Pre-emergence Test SOLNI percentage damage (five point scale) (Solanum nigrum (SOLNI) [12]; rate 1000 g/ha): 5 (5=81-100%)
